Source: ChEMBL document CHEMBL1152405, “Bis-anthracenyl isoxazolyl amides have enhanced anticancer activity” (Bioorg Med Chem Lett, 2009)

How the values were obtained:
MDA-MB-231 = assay: Growth inhibition of human MDA-MB-231 cells at 10 uM after 24 hrs by MTT assay relative to control; assay type: functional; parameters: scale not given: the % may be the effect or the level left
PC-3 = assay: Growth inhibition of human PC3 cells at 10 uM after 24 hrs by MTT assay relative to control; assay type: functional; parameters: scale not given: the % may be the effect or the level left
HCC 2998 = assay: Growth inhibition of human HCC2998 cells at 10 uM after 24 hrs by MTT assay relative to control; assay type: functional; parameters: scale not given: the % may be the effect or the level left
CCRF-CEM = assay: Growth inhibition of human CCRF-CEM cells at 10 uM after 24 hrs by MTT assay relative to control; assay type: functional; parameters: scale not given: the % may be the effect or the level left
SF-295 = assay: Growth inhibition of human SF295 cells at 10 uM after 24 hrs by MTT assay relative to control; assay type: functional; parameters: scale not given: the % may be the effect or the level left
OVCAR-5 = assay: Growth inhibition of human OVCAR5 cells at 10 uM after 24 hrs by MTT assay relative to control; assay type: functional; parameters: scale not given: the % may be the effect or the level left
SK-MEL-2 = assay: Growth inhibition of human SK-MEL-2 cells at 10 uM after 24 hrs by MTT assay relative to control; assay type: functional; parameters: scale not given: the % may be the effect or the level left
HOP-62 = assay: Growth inhibition of human HOP62 cells at 10 uM after 24 hrs by MTT assay relative to control; assay type: functional; parameters: scale not given: the % may be the effect or the level left
A549 = assay: Growth inhibition of human A549 cells at 10 uM after 24 hrs by MTT assay relative to control; assay type: functional; parameters: scale not given: the % may be the effect or the level left
Malme-3M = assay: Growth inhibition of human MALME-3M cells at 10 uM after 24 hrs by MTT assay relative to control; assay type: functional; parameters: scale not given: the % may be the effect or the level left
K562 = assay: Growth inhibition of human K562 cells at 10 uM after 24 hrs by MTT assay relative to control; assay type: functional; parameters: scale not given: the % may be the effect or the level left
[1] = Growth inhibition of human […] cells at 10 uM after 24 hrs by MTT assay relative to control; assay type: functional; parameters: scale not given: the % may be the effect or the level left
BT-549 = assay: Growth inhibition of human BT549 cells at 10 uM after 24 hrs by MTT assay relative to control; assay type: functional; parameters: scale not given: the % may be the effect or the level left
MDA-MB-435 = assay: Growth inhibition of human MDA-MB-435 cells at 10 uM after 24 hrs by MTT assay relative to control; assay type: functional; parameters: scale not given: the % may be the effect or the level left
CAKI-1 = assay: Growth inhibition of human Caki1 cells at 10 uM after 24 hrs by MTT assay relative to control; assay type: functional; parameters: scale not given: the % may be the effect or the level left
SNB-75 = assay: Growth inhibition of human SNB75 cells at 10 uM after 24 hrs by MTT assay relative to control; assay type: functional; parameters: scale not given: the % may be the effect or the level left
NCI-H322M = assay: Growth inhibition of human NCI-H322M cells at 10 uM after 24 hrs by MTT assay relative to control; assay type: functional; parameters: scale not given: the % may be the effect or the level left
HCT-15 = assay: Growth inhibition of human HCT15 cells at 10 uM after 24 hrs by MTT assay relative to control; assay type: functional; parameters: scale not given: the % may be the effect or the level left
OVCAR-4 = assay: Growth inhibition of human OVCAR4 cells at 10 uM after 24 hrs by MTT assay relative to control; assay type: functional; parameters: scale not given: the % may be the effect or the level left
OVCAR-8 = assay: Growth inhibition of human OVCAR8 cells at 10 uM after 24 hrs by MTT assay relative to control; assay type: functional; parameters: scale not given: the % may be the effect or the level left
UACC-62 = assay: Growth inhibition of human UACC62 cells at 10 uM after 24 hrs by MTT assay relative to control; assay type: functional; parameters: scale not given: the % may be the effect or the level left
TK-10 = assay: Growth inhibition of human TK10 cells at 10 uM after 24 hrs by MTT assay relative to control; assay type: functional; parameters: scale not given: the % may be the effect or the level left
MDA-MB-468 = assay: Growth inhibition of human MDA-MB-468 cells at 10 uM after 24 hrs by MTT assay relative to control; assay type: functional; parameters: scale not given: the % may be the effect or the level left
ACHN = assay: Growth inhibition of human ACHN cells at 10 uM after 24 hrs by MTT assay relative to control; assay type: functional; parameters: scale not given: the % may be the effect or the level left
SNB-19 [2] = assay: Antitumor activity against human SNB19 cells after 24 hrs; assay type: functional, cell-based; details: SNB-19, 24 h
SK-OV-3 = assay: Growth inhibition of human SKOV3 cells at 10 uM after 24 hrs by MTT assay relative to control; assay type: functional; parameters: scale not given: the % may be the effect or the level left
DU-145 = assay: Growth inhibition of human DU145 cells at 10 uM after 24 hrs by MTT assay relative to control; assay type: functional; parameters: scale not given: the % may be the effect or the level left
NCI-H23 = assay: Growth inhibition of human NCI-H23 cells at 10 uM after 24 hrs by MTT assay relative to control; assay type: functional; parameters: scale not given: the % may be the effect or the level left
EKVX = assay: Growth inhibition of human EKVX cells at 10 uM after 24 hrs by MTT assay relative to control; assay type: functional; parameters: scale not given: the % may be the effect or the level left
SF-539 = assay: Growth inhibition of human SF539 cells at 10 uM after 24 hrs by MTT assay relative to control; assay type: functional; parameters: scale not given: the % may be the effect or the level left
SNB-19 [3] = assay: Growth inhibition of human SNB19 cells at 10 uM after 24 hrs by MTT assay relative to control; assay type: functional; parameters: scale not given: the % may be the effect or the level left
A498 = assay: Growth inhibition of human A498 cells at 10 uM after 24 hrs by MTT assay relative to control; assay type: functional; parameters: scale not given: the % may be the effect or the level left
NCI-H460 = assay: Growth inhibition of human NCI-H460 cells at 10 uM after 24 hrs by MTT assay relative to control; assay type: functional; parameters: scale not given: the % may be the effect or the level left
SR = assay: Growth inhibition of human SR cells at 10 uM after 24 hrs by MTT assay relative to control; assay type: functional; parameters: scale not given: the % may be the effect or the level left
NCI/ADR-RES = assay: Growth inhibition of human NCI/ADR-RES cells at 10 uM after 24 hrs by MTT assay relative to control; assay type: functional; parameters: scale not given: the % may be the effect or the level left
HOP-92 = assay: Growth inhibition of human HOP92 cells at 10 uM after 24 hrs by MTT assay relative to control; assay type: functional; parameters: scale not given: the % may be the effect or the level left
SW-620 = assay: Growth inhibition of human SW620 cells at 10 uM after 24 hrs by MTT assay relative to control; assay type: functional; parameters: scale not given: the % may be the effect or the level left
NCI-H522 = assay: Growth inhibition of human NCI-H522 cells at 10 uM after 24 hrs by MTT assay relative to control; assay type: functional; parameters: scale not given: the % may be the effect or the level left
SK-MEL-28 = assay: Growth inhibition of human SK-MEL-28 cells at 10 uM after 24 hrs by MTT assay relative to control; assay type: functional; parameters: scale not given: the % may be the effect or the level left
SF-268 = assay: Growth inhibition of human SF268 cells at 10 uM after 24 hrs by MTT assay relative to control; assay type: functional; parameters: scale not given: the % may be the effect or the level left
SK-MEL-5 = assay: Growth inhibition of human SK-MEL-5 cells at 10 uM after 24 hrs by MTT assay relative to control; assay type: functional; parameters: scale not given: the % may be the effect or the level left
U-251 = assay: Growth inhibition of human U251 cells at 10 uM after 24 hrs by MTT assay relative to control; assay type: functional; parameters: scale not given: the % may be the effect or the level left
MOLT-4 = assay: Growth inhibition of human MOLT4 cells at 10 uM after 24 hrs by MTT assay relative to control; assay type: functional; parameters: scale not given: the % may be the effect or the level left
M14 = assay: Growth inhibition of human M14 cells at 10 uM after 24 hrs by MTT assay relative to control; assay type: functional; parameters: scale not given: the % may be the effect or the level left
OVCAR-3 = assay: Growth inhibition of human OVCAR-3 cells at 10 uM after 24 hrs by MTT assay relative to control; assay type: functional; parameters: scale not given: the % may be the effect or the level left
HCT-116 = assay: Growth inhibition of human HCT116 cells at 10 uM after 24 hrs by MTT assay relative to control; assay type: functional; parameters: scale not given: the % may be the effect or the level left
IGROV-1 = assay: Growth inhibition of human IGROV1 cells at 10 uM after 24 hrs by MTT assay relative to control; assay type: functional; parameters: scale not given: the % may be the effect or the level left
LOX IMVI = assay: Growth inhibition of human LOXIMVI cells at 10 uM after 24 hrs by MTT assay relative to control; assay type: functional; parameters: scale not given: the % may be the effect or the level left
SN12C = assay: Growth inhibition of human SN12C cells at 10 uM after 24 hrs by MTT assay relative to control; assay type: functional; parameters: scale not given: the % may be the effect or the level left
COLO 205 = assay: Growth inhibition of human COLO205 cells at 10 uM after 24 hrs by MTT assay relative to control; assay type: functional; parameters: scale not given: the % may be the effect or the level left
T47D = assay: Growth inhibition of human T47D cells at 10 uM after 24 hrs by MTT assay relative to control; assay type: functional; parameters: scale not given: the % may be the effect or the level left
HL-60(TB) = assay: Growth inhibition of human HL-60(TB) cells at 10 uM after 24 hrs by MTT assay relative to control; assay type: functional; parameters: scale not given: the % may be the effect or the level left
786-0 = assay: Growth inhibition of human 786-0 cells at 10 uM after 24 hrs by MTT assay relative to control; assay type: functional; parameters: scale not given: the % may be the effect or the level left
UO-31 = assay: Growth inhibition of human UO31 cells at 10 uM after 24 hrs by MTT assay relative to control; assay type: functional; parameters: scale not given: the % may be the effect or the level left
MCF7 = assay: Growth inhibition of human MCF7 cells at 10 uM after 24 hrs by MTT assay relative to control; assay type: functional; parameters: scale not given: the % may be the effect or the level left
[4] = Growth inhibition of human Hs 578T cells at 10 uM after 24 hrs by MTT assay relative to control; assay type: functional; parameters: scale not given: the % may be the effect or the level left
HT-29 = assay: Growth inhibition of human HT-29 cells at 10 uM after 24 hrs by MTT assay relative to control; assay type: functional; parameters: scale not given: the % may be the effect or the level left
UACC-257 = assay: Growth inhibition of human UACC257 cells at 10 uM after 24 hrs by MTT assay relative to control; assay type: functional; parameters: scale not given: the % may be the effect or the level left
KM12 = assay: Growth inhibition of human KM12 cells at 10 uM after 24 hrs by MTT assay relative to control; assay type: functional; parameters: scale not given: the % may be the effect or the level left

Q: What does the source list for `Cc1onc(-c2c3ccccc3c(Cl)c3ccccc23)c1C(=O)Nc1cc(C(=O)NCCCNC(=O)c2cc(NC(=O)c3c(-c4c5ccccc5c(Cl)c5ccccc45)noc3C)cn2C)n(C)c1`?
A: Activity (MDA-MB-231): 86.9%; Activity (PC-3): 76.05%; Activity (HCC 2998): 130.16%; Activity (CCRF-CEM): 84.24%; Activity (SF-295): 109.86%; Activity (OVCAR-5): 95.22%; Activity (SK-MEL-2): 102.24%; Activity (HOP-62): 87.7%; Activity (A549): 86.45%; Activity (Malme-3M): 94.79%; Activity (K562): 98.76%; Activity [1]: 78.11%; Activity (BT-549): 126.28%; Activity (MDA-MB-435): 85.56%; Activity (CAKI-1): 71.63%; Activity (SNB-75): 33.5%; Activity (NCI-H322M): 105.3%; Activity (HCT-15): 102.58%; Activity (OVCAR-4): 67.84%; Activity (OVCAR-8): 88.63%; Activity (UACC-62): 76.22%; Activity (TK-10): 107.71%; Activity (MDA-MB-468): 92.57%; Activity (ACHN): 79.36%; IC50 (SNB-19 [2]): > 100 µM; Activity (SK-OV-3): 100.87%; Activity (DU-145): 103.19%; Activity (NCI-H23): 105.33%; Activity (EKVX): 92.34%; Activity (SF-539): 91.99%; Activity (SNB-19 [3]): 74.84%; Activity (A498): 118.2%; Activity (NCI-H460): 101.62%; Activity (SR): 87.99%; Activity (NCI/ADR-RES): 103.72%; Activity (HOP-92): 66.96%; Activity (SW-620): 109.27%; Activity (NCI-H522): 76.93%; Activity (SK-MEL-28): 116.55%; Activity (SF-268): 72.67%; Activity (SK-MEL-5): 104%; Activity (U-251): 80.63%; Activity (MOLT-4): 91.53%; Activity (M14): 80.43%; Activity (OVCAR-3): 88.29%; Activity (HCT-116): 88.45%; Activity (IGROV-1): 64.38%; Activity (LOX IMVI): 82.59%; Activity (SN12C): 106.37%; Activity (COLO 205): 76.5%; Activity (T47D): 76.21%; Activity (HL-60(TB)): 160.8%; Activity (786-0): 81.38%; Activity (UO-31): 60.64%; Activity (MCF7): 94.12%; Activity [4]: 88.87%; Activity (HT-29): 93.17%; Activity (UACC-257): 86.93%; Activity (KM12): 96.11%
